Data from patent US20090054411A1, “4-ANILINOQUINOLINE-3-CARBOXAMIDES AS CSF-1R KINASE INHIBITORS” (AstraZeneca AB, priority 2006, published 2009).

Target: T1, CSF-1R (Homo sapiens, UniProt P07333)
T1 construct: His-tagged kinase domain of CSF-1R (i.e., amino acids 568-912, GeneBank ID NM_005211); His; made in house; host or cells: baculovirus-infected SF+Express insect cells
T1 sequence (P07333 568-912): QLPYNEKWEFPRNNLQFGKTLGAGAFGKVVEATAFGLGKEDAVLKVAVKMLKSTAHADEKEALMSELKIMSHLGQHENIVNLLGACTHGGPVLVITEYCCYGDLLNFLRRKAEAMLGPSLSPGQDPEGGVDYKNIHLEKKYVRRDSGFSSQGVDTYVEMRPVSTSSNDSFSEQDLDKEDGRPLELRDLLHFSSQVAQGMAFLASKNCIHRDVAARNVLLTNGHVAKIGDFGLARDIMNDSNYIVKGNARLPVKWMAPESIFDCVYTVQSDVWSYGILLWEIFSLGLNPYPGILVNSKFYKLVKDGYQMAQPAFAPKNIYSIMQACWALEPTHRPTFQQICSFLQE
Assay: CSF-1R In Vitro AlphaScreen Assay
Type: biochemical
Settings: purified His-tagged kinase domain of CSF-1R, pEY substrate, 90 μM ATP
Procedure: Activity of purified CSF-1R was determined in vitro using an Amplified Luminescent Proximity Homogeneous Assay (ALPHA)(Perkin Elmer), which measures phosphorylation of the CSF-1R substrate, biotinylated poly-glutamine-tyrosine peptide (pEY-HTRF CisBio 61GT0BLD), as described below.
The phosphorylation of the CSF-1R substrate in the presence and absence of the compound of interest was determined. […] Plates were incubated at 25° C. for 18 hours in the dark. Phosphorylated substrate was detected by an EnVision plate reader (Perkin Elmer) 680 nm excitation, 520-620 nm emission. Data was graphed and IC50s calculated using Excel Fit (Microsoft).

| SMILES | IC50 [nM] |
| --- | --- |
| COc1cc2c(Nc3cccc(Cl)c3Cl)c(C(N)=O)cnc2cc1N1CCN(C)CC1 [Example 9] | 23 |
| NC(=O)c1cnc2cc(F)c(N3CCOCC3)cc2c1Nc1ccc(F)cc1F [Example 18] | 154 |
